The target in one data set is T1, hCAR LBD (Homo sapiens, UniProt Q14994).
T1 construct: or 103-348 of hCAR; made in house; host or cells: E. coli BL21(DE3), pRSETa
T1 sequence (Q14994 103-348 isoform Q14994-2): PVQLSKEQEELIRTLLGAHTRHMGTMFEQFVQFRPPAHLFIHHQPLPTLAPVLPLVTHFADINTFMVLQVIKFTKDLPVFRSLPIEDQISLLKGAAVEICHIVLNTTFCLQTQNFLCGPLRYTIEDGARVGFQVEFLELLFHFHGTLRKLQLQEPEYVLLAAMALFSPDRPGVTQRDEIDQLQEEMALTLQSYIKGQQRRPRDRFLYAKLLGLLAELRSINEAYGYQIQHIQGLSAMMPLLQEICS
Kind of data set: Scintillation proximity binding assay with [3H]clotrimazole. The note with it: 10 nM [3H]clotrimazole, 10 μM competitor. Background: SPA uses beads or plates that emit light when radiolabelled molecules are held near them.

Data set [1] has as its target T2, mouse CAR (mCAR) (Mus musculus, UniProt O35627).
T2 sequence (O35627 1-358): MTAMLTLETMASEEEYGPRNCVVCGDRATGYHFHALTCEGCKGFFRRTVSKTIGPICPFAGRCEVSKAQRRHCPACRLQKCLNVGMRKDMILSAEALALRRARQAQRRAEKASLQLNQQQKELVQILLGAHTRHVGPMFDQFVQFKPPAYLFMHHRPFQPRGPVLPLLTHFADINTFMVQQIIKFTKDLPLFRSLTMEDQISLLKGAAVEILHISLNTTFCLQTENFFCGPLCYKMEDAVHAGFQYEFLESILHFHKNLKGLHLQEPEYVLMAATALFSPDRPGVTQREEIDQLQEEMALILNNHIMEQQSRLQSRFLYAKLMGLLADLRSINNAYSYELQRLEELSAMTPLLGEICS
Kind of data set: in vitro.

The next data set concerns the target T3, hCAR/SRC-1 interaction (Homo sapiens, UniProt Q14994).
T3 construct: or 103-348 of hCAR; made in house; host or cells: E. coli BL21(DE3), pRSETa
T3 sequence (Q14994 103-348 isoform Q14994-2): T1 sequence (Q14994 103-348 isoform Q14994-2)
As to the kind of experiment: FRET ligand sensing assay, hCAR LBD with SRC-1 LXXLL peptide. It counts as biochemical. To be noted: SRC-1 peptide amino acids 676 to 700.

For data set [2], the target named is T4, human CAR (hCAR) (Homo sapiens, UniProt Q14994).
T4 sequence (Q14994 1-348 isoform Q14994-2): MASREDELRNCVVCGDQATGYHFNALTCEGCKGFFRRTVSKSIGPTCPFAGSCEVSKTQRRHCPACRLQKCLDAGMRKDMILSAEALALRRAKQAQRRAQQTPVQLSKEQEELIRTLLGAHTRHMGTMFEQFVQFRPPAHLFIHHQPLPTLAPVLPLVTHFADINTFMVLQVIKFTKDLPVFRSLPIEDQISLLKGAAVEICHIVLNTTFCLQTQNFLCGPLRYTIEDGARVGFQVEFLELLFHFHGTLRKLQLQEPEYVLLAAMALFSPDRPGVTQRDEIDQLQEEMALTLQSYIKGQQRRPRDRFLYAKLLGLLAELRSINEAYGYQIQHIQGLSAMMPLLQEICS
To be noted: for EC50: read-out: EC50 values for activation/deactivation of CAR, HCAR, transfected CV-1 cells, 0.0001 μM to 10 μM in half-log steps, EC50 given only for ≧ 2-fold activation or deactivation relative to basal activity.

Data set [3] addresses T4, human CAR (hCAR). Kind of data set: cell-based.
The target in data set [4] is T2, mouse CAR (mCAR).
Data set [5] addresses T4, human CAR (hCAR). As to the kind of experiment: in vitro.
Where [6] appears, read: CV-1 cells, PB tested at 0.5 mM (high concentrations).
Setting [7] is: read-out: EC50 values for activation/deactivation of CAR, mCAR, transfected CV-1 cells, 0.0001 μM to 10 μM in half-log steps, EC50 given only for ≧ 2-fold activation or deactivation relative to basal activity.

The record followed here is patent US6579686B2, “Constitutive androstane receptor” (SmithKline Beecham Corporation, priority 2000, dated 2003).

“Also recorded” adds a separate entry of the source. Where two headings read alike, the source gives them in different places.

Experimental for hCAR/SRC-1 interaction: The mCAR and hCAR LBD were each expressed in E. coli strain BL21(DE3) as a polyhistidine-tagged fusion protein. […] Cells were lysed by passing 3 times through an APV Rannie MINI-lab homogenizer and cell debris was removed by centrifugation (30 minutes, 20,000 g, 4° C.). After adjusting the imidazole concentration to 50 mM, the lysate was loaded onto a column packed with Sepharose [Ni^++ charged] Chelation resin (Pharmacia) and pre-equilibrated with TBS pH 8.0/50 mM imidazole. […] The recombinant protein was eluted with a gradient from 50 to 500 mM imidazole. Column peak fractions were pooled immediately and diluted 5-7 fold with 25 mM Tris pH 8.0, containing 5% 1,2-propanediol, 0.5 mM EDTA and 5 mM DTT. The diluted protein sample was then loaded onto a column packed with Poros HQ resin (PerSeptive Biosystems) and eluted with a gradient from 0-500 mM NaCl. Peak fractions were pooled and concentrated using Centri-prep 10K (Amicon) and subjected to size exclusion, using a column packed with Superdex-75 resin (Pharmacia) pre-equilibrated with TBS, pH 8.0, containing 5% 1,2-propanediol, 0.5 mM EDTA and 5 mM DTT.
The purified CAR LBDs were desalted/buffer exchanged using PD-10 gel filtration columns into PBS [100 mM NaPhosphate, pH 7.2, 150 mM NaCl]. […]
Fluorescence resonance energy transfer (FRET) ligand sensing assay. […]

With `CC(=O)[C@H]1CC[C@H]2[C@@H]3CC[C@@H]4CC(=O)CC[C@]4(C)[C@H]3CC[C@]12C` [5β-pregnane-3,20-dione], on hCAR LBD, the “competition with [3H]clotrimazole for binding to hCAR (in words)” value (“competition with [3H]clotrimazole” for short) is given as “competed efficiently”. Besides, on mouse CAR (mCAR) [1], the EC50 at 24 h was over 10 µM. The “effect on hCAR LBD/SRC-1 interaction (in words)” value on hCAR/SRC-1 interaction is listed as “marked increase in the binding of SRC-1 to hCAR”. Moreover, on human CAR (hCAR) [2] (CV-1 cells, relative to basal activity), the “activation of hCAR” value is about 2 fold. At human CAR (hCAR) [3], this compound registered an EC50 of 0.67 µM. In addition, the “effect on mCAR reporter activity (in words)” value at mouse CAR (mCAR) [4] (CV-1 cells, screened at 10 μM) was “only weak effects”.
`CCC1(c2ccccc2)C(=O)NC(=O)NC1=O` [PB, phenobarbital]: at human CAR (hCAR) [2] (setting [6]), the “effect on hCAR reporter activity (in words)” value is “weak but reproducible deactivation; also recorded: deactivated hCAR”. On mouse CAR (mCAR) [4] (setting [6]), the “effect on mCAR reporter activity (in words)” value is listed as “weak but reproducible deactivation”.
As for `CC#C[C@]1(O)CC[C@H]2[C@@H]3CCC4=CC(=O)CCC4=C3[C@@H](c3ccc(N(C)C)cc3)C[C@@]21C` [RU486], the EC50 at 24 h on human CAR (hCAR) [5] and on mouse CAR (mCAR) [1] was over 10 µM throughout.
On to `CCOP(=O)(OCC)C(=Cc1cc(C(C)(C)C)c(O)c(C(C)(C)C)c1)P(=O)(OCC)OCC` [SR12813], for which, on hCAR LBD, the “competition with [3H]clotrimazole” value was “did not compete”. Besides, on human CAR (hCAR) [2] (CV-1 cells, screened at 10 μM), the “effect on hCAR reporter activity (in words)” value was “little or no effect; also recorded: little or no activity”. Further, the EC50 at human CAR (hCAR) [2] and on mouse CAR (mCAR) [4] (setting [7]) was over 10 µM in each case. For the same compound, the “effect on mCAR reporter activity (in words)” value on mouse CAR (mCAR) [4] (CV-1 cells, screened at 10 μM) is “little or no effect”.
For the compound `Clc1cnc(Oc2ccc(Oc3ncc(Cl)cc3Cl)cc2)c(Cl)c1` [TCPOBOP, 1,4-bis[2-(3,5-dichloropyridyloxy)]benzene], at hCAR LBD, the “competition with [3H]clotrimazole” value is reported as “did not compete”. For the same compound, the “effect on hCAR reporter activity (in words)” value on human CAR (hCAR) [2] (CV-1 cells, screened at 10 μM) is on record as “virtually no activity; also recorded: little or no activity”. In addition, the EC50 at human CAR (hCAR) [2] was over 10 µM; on mouse CAR (mCAR) [4] (read-out: EC50 for activation of mCAR, CV-1 cells), about 0.1 µM; on mouse CAR (mCAR) [4] (setting [7]), 0.1 µM. Besides, the “effect on mCAR reporter activity (in words)” value on mouse CAR (mCAR) [4] (CV-1 cells, screened at 10 μM) is “efficacious activator of mCAR”.
Consider `C[C@@]12CCC[C@H]1[C@@H]1CC[C@H]3C[C@@H](O)CC[C@]3(C)[C@H]1CC2` [androstanol], for which the “competition with [3H]clotrimazole” value on hCAR LBD is reported as “competed efficiently”. In addition, the “effect on hCAR LBD/SRC-1 interaction (in words)” value at hCAR/SRC-1 interaction is reported as “disrupted this interaction”. Moreover, the “effect on hCAR reporter activity (in words)” value on human CAR (hCAR) [2] (CV-1 cells, screened at 10 μM) is listed as “deactivated hCAR, though the effect was not nearly as pronounced as on mCAR”. The EC50 at human CAR (hCAR) [2] is over 10 µM; on mouse CAR (mCAR) [4] (setting [7]), 0.84 µM. The “effect on mCAR reporter activity (in words)” value on mouse CAR (mCAR) [4] (CV-1 cells, screened at 10 μM) is reported as “efficacious deactivator of mCAR”.
As for `Clc1ccccc1C(c1ccccc1)(c1ccccc1)n1ccnc1` [clotrimazole], the “effect on hCAR reporter activity (in words)” value on human CAR (hCAR) [2] (CV-1 cells, screened at 10 μM) is “efficacious deactivator of hCAR”.
Regarding `C[C@@H]1C[C@H]2[C@@H]3CCC4=CC(=O)C=C[C@]4(C)[C@@]3(F)[C@@H](O)C[C@]2(C)[C@@]1(O)C(=O)CO` [dexamethasone], the EC50 at 24 h at human CAR (hCAR) [5] and at mouse CAR (mCAR) [1] was over 10 µM throughout.
